For data set [1], the system named is DNA target 3′-d(CACTYTACG). The following applies: data reported earlier; cited from earlier work.
Data set [2] relates to DNA target 3′-d(CACTYTACG). Put plainly: Thermal denaturation of ON1-ON11 towards DNA complements. In kind it is binding. The following applies: 1.5 μM of the two strands.
Data set [3] has as its system C. elegans genes relevant for general stress response and metabolism of toxic compounds.
Data set [4] relates to human chromosome 21 alphaRI (680) locus alpha-satellite repeat. Put plainly: FISH with chromosome-21 specific centromere LNA probes. The data set is classed as binding. The following applies: 40 min. hybridization at RT.
The subject of data set [5] is splice variant #1 and #2 transcripts spiked into C. elegans total RNA. As to the kind of experiment: Splice variant ratio detection with merged LNA block capture probes (Example 9). The data set is classed as binding. The following applies: signal ratio KU007/KU008, Cy5, normalized.
A further data set concerns human telomere repeat. As to the kind of experiment: FISH with human telomere repeat LNA probe. The note with it: 5 pmoles probe, 30 min. hybridization at 37° C. In kind it is binding. As to the method: Chromosome preparations were made by standard methods from peripheral lymphocyte cultures of two normal males. Slides were prepared 1-6 days prior to an experiment and treated with RNAse (10 μg/μl) at 37° C. for one hour before hybridization. […] FISH was carried out as described previously (Silahtaroglu et al, 1998) with the following modifications. […] Slides were washed after 30 min. hybridization at 37° C. Post washing steps included a 2×5 min 0.1×SSC at 60° C.; 5 min 2×SSC at 37° C.; 3 min 4×SSC/0.05% Tween20 at 37° C. and 5 min PBS. […] The whole procedure was carried out in the dark. The signals were visualized using a Leica DMRB epifluorescence microscope equipped with a SenSys charge-coupled device camera (Photometrics, Tucson, Ariz.), and IPLAB Spectrum Quips FISH software (Applied Imaging international Ltd., Newcastle, UK).

Setting [6] is: C. elegans, incubation 24 hours.

Read-outs that look alike come from different tables or passages of the source. l = locked nucleic acid (LNA); {Biotin} = biotin label; d = 2'-deoxy (DNA)

5′-d(GTGATATGC) [ON1]: in data set [1], the “Tm, Y = A” value is 28 °C; the “Tm, Y = C” value is 11 °C; the “Tm, Y = G” value is 12 °C; the “Tm, Y = T” value is 19 °C.

With “5′-d[2′-OMe(GTGATATGC)] [ON5, reference compound]”, the “Tm, Y = A” value in data set [2] (10 mM sodium phosphate, 100 mM sodium chloride, 0.1 mM EDTA, pH 7.0) was determined as 35 °C. For the same compound, in data set [2] (medium salt buffer), the “Tm, Y = C” value was determined as 14 °C; the “Tm, Y = G” value stood at 19 °C; the “Tm, Y = T” value was 21 °C.

On to `Cc1c(OCC(F)(F)F)ccnc1C[S+]([O-])c1nc2ccccc2[nH]1` (stereo not shown) [Lansoprazole], for which, in data set [3] (setting [6]), the “Log2 transformed fold of change, HSP90 (C47E8.5)” value was −1.17 and the “Log2 transformed fold of change, Ubiquitin (M7.1)” value is given as −0.12. Also, in data set [3] (in vivo), the “Log2 transformed fold of change, CYP37A (F01D5.9)” value worked out at 0.98.

For orientation: melting point means the temperature of the solid-liquid transition. Turning to `Nc1ncc2ncn([C@@H]3O[C@@]4(CO)CO[C@@H]3[C@@H]4O)c2n1` [compound 23, (1S,3R,4R,7S)-3-(2-aminopurin-9-yl)-7-hydroxy-1-hydroxymethyl-2,5-dioxabicyclo[2.2.1]heptane], the melting point is 227.5 to 229 °C (dec.).

With “TgTgTaCcCaGcCaAaGgAgTtGa (TGTGTACCCAGCCAAAGGAGTTGA; sugars from the 5' end ldldldldldldldldldldldld, 5' {Biotin}, backbone and methylation of C not given here) [5′ biotin-labelled 24-mer FISH probe]”, the “FISH signals on chromosomes” value in data set [4] is “prominent signals both on chromosomes 13 and 21”.

For “aCcCaGcCaAaGgAg (ACCCAGCCAAAGGAG; sugars from the 5' end dldldldldldldld, 5' {Biotin}, backbone and methylation of C not given here) [5′ biotin-labelled 15-mer FISH probe]”, in data set [4], the “FISH signals on chromosomes” value is given as “prominent signals on chromosome 21”.

Turning to “gtccagtatcgtccatcatAGTATcgataaatatgtgaaggaaatgcctg (as printed in the source, key not given here) [gene78.mINS303_50_block]”, in data set [5], the “Observed ratio (log2) with merged LNA block capture probes” value was determined as 3.11.

For the compound “ttagggttagggttagggttaggg [human telomere repeat specific LNA oligonucleotide probe] (TTAGGGTTAGGGTTAGGGTTAGGG)”, the “FISH signals on telomeres” value in the data set with human telomere repeat was “prominent signals on the telomeres”.
